Results published in ChEMBL document CHEMBL5380869, “Discovery of an Oral, Beyond-Rule-of-Five Mcl-1 Protein-Protein Interaction Modulator with the Potential of Treating Hematological Malignancies” (J Med Chem, 2023).
In brackets after ≈: the same amount, converted by molar mass.

Key:
[1] = Cardiotoxicity risk in human iPSC-CM assessed as calcium transients at 10 uM by CTCM assay; type: toxicity, cell-based
[2] = Thermodynamic (equilibrium) solubility of the compound measured after 3 days agitation in pH 7 buffer by LC-MS/MS analysis; type: physicochemical; details: time 3 day, read-out: Therm_solubility
[3] = Intrinsic clearance in human liver microsomes measured upto 60 mins by LC-MS/MS analysis; type: ADME, Microsome; details: read-out: CLH
[4] = Cardiotoxicity risk in human iPSC-CM assessed as calcium transients at 3 uM by CTCM assay; type: toxicity, cell-based
[5] = Thermodynamic (equilibrium) solubility of the compound measured after 3 days agitation in pH 2 buffer by LC-MS/MS analysis; type: physicochemical; details: time 3 day, read-out: Therm_solubility
[6] = system: MOLP-8; assay: Induction apoptosis in human MOLP8 cells assessed as cell killing measured after 2 hrs by Caspase-Glo 3/7 Assay; type: functional, cell-based; details: MOLP-8, 2 h
[7] = Inhibition of terbium-labelled Mcl-1 (unknown origin)/Bim BH3 peptide (H3N-(C/Cy5Mal)-WIAQELRRIGDEFN-OH) (unknown origin) interaction assessed as displacement of Cy5-labeled Bim BH3 peptide by TR-HTRF assay
[8] = Lipophilicity, CHI logD of compound at pH 7.4 by UPLC-TOF analysis; type: physicochemical; details: buffer
[9] = Intrinsic clearance in mouse liver microsomes measured upto 60 mins by LC-MS/MS analysis; type: ADME, Microsome; details: read-out: CLH
[10] = Cardiotoxicity risk in human iPSC-CM assessed as calcium transients at 1 uM by CTCM assay; type: toxicity, cell-based
[11] = Lipophilicity, CHI logP of compound at pH 7.4 by UPLC-TOF analysis; type: physicochemical; details: buffer, read-out: logP
[12] = Lipophilicity, CHI logD of compound at pH 2.6 by UPLC-TOF analysis; type: physicochemical; details: buffer

Row | SMILES | Activity [1] | solubility thermodynamic at 72 h [2] [µM] | microsomal CLint [3] [µL/min/mg] | Activity [4] | solubility thermodynamic at 72 h [5] [µM] | AC50 [6] [nM] | Ki [7] [nM] | chromatographic logD [8] | microsomal CLint [9] [µL/min/mg] | Activity [10] | chromatographic logD [11] | chromatographic logD [12]
1 | COc1nn(C)cc1C(=O)N[S@]1(=O)=NC(=O)c2ccc3c(c2)N(C[C@@H]2CCO[C@H]2[C@](CN2CCN4CCOC[C@@H]4C2)(OC)/C(F)=C/C[C@H](C)C1)C[C@@]1(CCCc2cc(Cl)ccc21)CO3 | Non-Toxic | 25 (≈ 23.1 µg/mL) | < 7.7 | Non-Toxic | 480 (≈ 444 µg/mL) | 702 | 0.17 | 3 | < 7.7 | Non-Toxic | – | –
2 | C[C@@H]1[C@@H](C)C/C=C(\F)[C@@](O)(CN2CCN3CCCC[C@@H]3C2)[C@@H]2OCC[C@H]2CN2C[C@@]3(CCCc4cc(Cl)ccc43)COc3ccc(cc32)C(=O)NS1(=O)=O | – | < 0.1 | < 7.7 | – | 95 (≈ 74.6 µg/mL) | 2660 | 0.22 | – | < 7.7 | – | 2.9 | 2.5
3 | COc1nn(C)cc1C(=O)N[S@]1(=O)=NC(=O)c2ccc3c(c2)N(C[C@@H]2CCO[C@H]2[C@H](OC)/C(F)=C/C[C@H](C)C1)C[C@@]1(CCCc2cc(Cl)ccc21)CO3 | Non-Toxic | 0.6 (≈ 0.462 µg/mL) | < 7.7 | Non-Toxic | < 0.1 | 486 | 0.025 | 3.1 | 16 | Non-Toxic | – | –
4 | COC[C@H]1/C(C)=C/C[C@H](C)[C@@H](C)S(=O)(=O)NC(=O)c2ccc3c(c2)N(C[C@@H]2CCO[C@H]21)C[C@@]1(CCCc2cc(Cl)ccc21)CO3 | – | < 0.1 | < 7.7 | – | < 0.1 | 1820 | 0.67 | 3.7 | 18 | – | – | –
5 | C/C1=C\C[C@H](C)[C@@H](C)S(=O)(=O)NC(=O)c2ccc3c(c2)N(C[C@@H]2CCO[C@H]2[C@H]1CO)C[C@@]1(CCCc2cc(Cl)ccc21)CO3 | – | < 0.1 | < 7.7 | – | < 0.1 | 752 | 0.52 | 2.8 | 27 | – | – | –
6 | C[C@@H]1[C@@H](C)C/C=C(\F)[C@@](O)(CC(=O)N(C)C)[C@@H]2OCC[C@H]2CN2C[C@@]3(CCCc4cc(Cl)ccc43)COc3ccc(cc32)C(=O)NS1(=O)=O | – | < 0.1 | < 7.7 | Non-Toxic | < 0.1 | 436 | 0.18 | 3.6 | < 7.7 | Non-Toxic | – | –
7 | CO[C@@]1(CN2CCN3CCOC[C@@H]3C2)/C(F)=C/C[C@H](C)[C@H](C)S(=O)(=O)NC(=O)c2ccc3c(c2)N(C[C@@H]2CCO[C@H]21)C[C@@]1(CCCc2cc(Cl)ccc21)CO3 | Toxic | < 0.1 | < 7.7 | Non-Toxic | 516 (≈ 414 µg/mL) | 992 | 0.13 | – | 22 | Non-Toxic | 3.3 | 3.4
8 | COc1nn(C)cc1C(=O)N[S@]1(=O)=NC(=O)c2ccc3c(c2)N(C[C@@H]2CCO[C@H]2[C@@](CN2CCN4CCOC[C@@H]4C2)(OC)/C(F)=C/C[C@H](C)C1)C[C@@]1(CCCc2cc(Cl)ccc21)CO3 | – | 518 (≈ 479 µg/mL) | < 7.7 | Non-Toxic | 544 (≈ 503 µg/mL) | 424 | 0.048 | 3 | < 7.7 | Non-Toxic | – | –
9 | CO[C@@]1(CN2CCN3CCCC[C@@H]3C2)/C(F)=C/C[C@H](C)[C@@H](C)S(=O)(=O)NC(=O)c2ccc3c(c2)N(C[C@@H]2CCO[C@H]21)C[C@@]1(CCCc2cc(Cl)ccc21)CO3 | – | 102 (≈ 81.5 µg/mL) | < 7.7 | – | 40 (≈ 32 µg/mL) | 1860 | 0.15 | – | < 7.7 | – | 3 | 2.5
10 | COc1nn(C)cc1C(=O)N[S@@]1(=O)=NC(=O)c2ccc3c(c2)N(C[C@@H]2CCO[C@H]2[C@@H](OC)/C=C/C[C@H](C)C1)C[C@@]1(CCCc2cc(Cl)ccc21)CO3 | Non-Toxic | 172 (≈ 129 µg/mL) | < 7.7 | Non-Toxic | 0.27 (≈ 0.203 µg/mL) | 76.1 | 0.023 | 2.9 | < 7.7 | Non-Toxic | – | –
11 | COCCN(CCOC)C[C@]1(OC)/C(F)=C/C[C@H](C)[C@@H](C)S(=O)(=O)NC(=O)c2ccc3c(c2)N(C[C@@H]2CCO[C@H]21)C[C@@]1(CCCc2cc(Cl)ccc21)CO3 | – | 1.1 (≈ 0.872 µg/mL) | < 7.7 | – | 518 (≈ 410 µg/mL) | 412 | 0.096 | – | 28 | – | 3.9 | 3
12 | C[C@@H]1[C@@H](C)C/C=C/[C@H](O)[C@@H]2OCC[C@H]2CN2C[C@@]3(CCCc4cc(Cl)ccc43)COc3ccc(cc32)C(=O)NS1(=O)=O | – | 53 (≈ 32.6 µg/mL) | 16 | – | < 0.1 | 752 | 0.72 | 2.6 | 28 | – | – | –
13 | CO[C@@H]1/C(F)=C/C[C@H](C)[C@@H](C)S(=O)(=O)NC(=O)c2ccc3c(c2)N(C[C@@H]2CCO[C@H]21)C[C@@]1(CCCc2cc(Cl)ccc21)CO3 | – | 11.2 (≈ 7.25 µg/mL) | < 7.7 | – | < 0.5 | 1120 | 1.13 | 3 | 21 | – | – | –
14 | COc1nn(C)cc1C(=O)N[S@@]1(=O)=NC(=O)c2ccc3c(c2)N(C[C@@H]2CCO[C@H]2[C@H](OC)/C(F)=C/C[C@H](C)C1)C[C@@]1(CCCc2cc(Cl)ccc21)CO3 | – | 188 (≈ 145 µg/mL) | < 7.7 | Non-Toxic | 0.2 (≈ 0.154 µg/mL) | > 5000 | 5.1 | 2.9 | < 7.7 | Non-Toxic | – | –
15 | CO[C@H]1/C(F)=C/C[C@H](C)[C@@H](C)S(=O)(=O)NC(=O)c2cnc3c(n2)N(C[C@@H]2CCO[C@H]21)C[C@@]1(CCCc2cc(Cl)ccc21)CO3 | – | 143 (≈ 92.8 µg/mL) | 98 | – | < 0.1 | 1220 | 5.29 | 2.8 | < 7.7 | – | – | –
16 | COc1nn(C)cc1C(=O)N[S@]1(=O)=NC(=O)c2ccc3c(c2)N(C[C@@H]2CCO[C@H]2[C@@H](OC)/C(F)=C/C[C@H](C)C1)C[C@@]1(CCCc2cc(Cl)ccc21)CO3 | – | 202 (≈ 156 µg/mL) | 16 | Non-Toxic | < 0.1 | 2420 | 0.25 | 3 | 9.3 | Non-Toxic | – | –
17 | C[C@@H]1[C@@H](C)C/C=C(\F)[C@@](O)(CC#N)[C@@H]2OCC[C@H]2CN2C[C@@]3(CCCc4cc(Cl)ccc43)COc3ccc(cc32)C(=O)NS1(=O)=O | – | 0.3 (≈ 0.202 µg/mL) | < 7.7 | – | < 0.5 | > 5000 | 2.36 | 3.1 | < 7.7 | – | – | –
18 | CO[C@]1(CN2CCN3CCOC[C@@H]3C2)/C(F)=C/C[C@H](C)[C@@H](C)S(=O)(=O)NC(=O)c2ccc3c(c2)N(C[C@@H]2CCO[C@H]21)C[C@@]1(CCCc2cc(Cl)ccc21)CO3 | Toxic | < 0.1 | 11 | Non-Toxic | 44 (≈ 35.3 µg/mL) | 163 | 0.088 | – | 21 | Non-Toxic | 3.5 | 2.8
19 | C[C@@H]1[C@@H](C)C/C=C/[C@H](OCCN2CCOCC2)[C@@H]2OCC[C@H]2CN2C[C@@]3(CCCc4cc(Cl)ccc43)COc3ccc(cc32)C(=O)NS1(=O)=O | Non-Toxic | 0.4 (≈ 0.291 µg/mL) | 34 | Non-Toxic | 521 (≈ 379 µg/mL) | 616 | 0.23 | 2.7 | 14 | Non-Toxic | – | 2.3
20 | C[C@@H]1[C@@H](C)C/C=C(\F)[C@H](OCCN2CCOCC2)[C@@H]2OCC[C@H]2CN2C[C@@]3(CCCc4cc(Cl)ccc43)COc3ccc(cc32)C(=O)NS1(=O)=O | Non-Toxic | 1.2 (≈ 0.896 µg/mL) | 62 | Non-Toxic | 539 (≈ 402 µg/mL) | 314 | 0.19 | 2.7 | 34 | Non-Toxic | – | 2.5
